According to ChEMBL document CHEMBL2150989, “Effect of phospholipid-based formulations of Boswellia serrata extract on the solubility, permeability, and absorption of the individual boswellic acid constituents present” (J Nat Prod, 2012):
Converted amounts (≈) assume the structure as drawn.

Legend:
Plasma [1] = experiment: Plasma concentration in rat at 240 mg/kg, po administered using compound, Lipoid S100 and pluronic f127 ratio 1:1:1 formulation relative to non-formulated compound after 4 to 6 hrs; format: ADME, organism-based; parameters: dose 240 mg/kg, route oral; conditions: in vivo
Brain [2] = experiment: Drug level in rat brain at 240 mg/kg, po; format: ADME, organism-based; parameters: dose 240 mg/kg, route oral; conditions: in vivo
Brain [3] = experiment: Drug level in rat brain at 240 mg/kg, po administered using compound, Lipoid S100 and pluronic f127 ratio 1:1:1 formulation; format: ADME, organism-based; parameters: dose 240 mg/kg, route oral; conditions: in vivo
[4] = Ratio drug level in brain to plasma of rat at 240 mg/kg, po after 8 hrs; format: ADME, organism-based; parameters: dose 240 mg/kg, route oral; conditions: brain and plasma, read-out: BPR
[5] = Ratio drug level in brain to plasma of rat at 240 mg/kg, po administered using compound, Lipoid S100 and pluronic f127 ratio 1:1:1 formulation after 8 hrs; format: ADME, organism-based; parameters: dose 240 mg/kg, route oral; conditions: read-out: BPR
[6] = Solubility of the compound in fed state simulated intestinal fluid at compound to Lipoid S100 ratio 1:3 after 3 hrs by HPLC analysis; format: physicochemical
[7] = Solubility of the compound in water at pH 6.5; format: physicochemical
[8] = Solubility of the compound in fasted state simulated intestinal fluid at compound to Lipoid S100 ratio 1:1 after 3 hrs by HPLC analysis in presence of 10:1 molar ratio of Lipoid S100 to tween 80; format: physicochemical
[9] = Solubility of the compound in fasted state simulated intestinal fluid at compound to Lipoid S100 ratio 1:1 after 3 hrs by HPLC analysis in presence of 5:1 molar ratio of Lipoid S100 to tween 80; format: physicochemical
[10] = Solubility of the compound in fasted state simulated intestinal fluid at compound to Lipoid S100 ratio 1:1 after 3 hrs by HPLC analysis in presence of 3:1 molar ratio of Lipoid S100 to tween 80; format: physicochemical
[11] = Solubility of the compound in fasted state simulated intestinal fluid at compound to Lipoid S100 ratio 1:3 after 3 hrs by HPLC analysis in presence of 10:1 molar ratio of Lipoid S100 to tween 80; format: physicochemical
[12] = Solubility of the compound in fasted state simulated intestinal fluid at compound to Lipoid S100 ratio 1:3 after 3 hrs by HPLC analysis in presence of 5:1 molar ratio of Lipoid S100 to tween 80; format: physicochemical
[13] = Solubility of the compound in fasted state simulated intestinal fluid at compound to Lipoid S100 ratio 1:3 after 3 hrs by HPLC analysis in presence of 3:1 molar ratio of Lipoid S100 to tween 80; format: physicochemical
Caco-2 = experiment: Permeability from apical to basolateral side of human Caco2 cells at compound to Lipoid S100 ratio 1:3 in presence of 5:1 molar ratio of Lipoid S100 to tween 80; format: ADME, cell-based; conditions: BLD = below limit of detection
[14] = Permeability from apical to basolateral side of human Caco2 cells assessed as mass balance at compound, Lipoid S100 and tween 80 ratio 1:1:1; format: ADME, cell-based; conditions: Caco-2, read-out: permeability
[15] = Permeability from apical to basolateral side of human Caco2 cells assessed as mass balance at compound to Lipoid S100 ratio 1:1; format: ADME, cell-based; conditions: Caco-2, read-out: permeability
[16] = Permeability from apical to basolateral side of human Caco2 cells assessed as mass balance at compound, Lipoid S100 and vitamin E-TPGS ratio 1:2:1; format: ADME, cell-based; conditions: Caco-2, read-out: permeability
[17] = Permeability from apical to basolateral side of human Caco2 cells assessed as mass balance at compound to Lipoid S100 ratio 1:3 in presence of 5:1 molar ratio of Lipoid S100 to tween 80; format: ADME, cell-based; conditions: Caco-2, read-out: permeability
[18] = Permeability from apical to basolateral side of human Caco2 cells assessed as mass balance at compound to Lipoid S100 ratio 1:3; format: ADME, cell-based; conditions: Caco-2, read-out: permeability
[19] = Permeability from apical to basolateral side of human Caco2 cells assessed as mass balance at 5 mg/mL; format: ADME, cell-based; conditions: Caco-2, read-out: permeability
[20] = Permeability from apical to basolateral side of human Caco2 cells assessed as mass balance at compound, Lipoid S100 and vitamin E-TPGS ratio 1:1:1; format: ADME, cell-based; conditions: Caco-2, read-out: permeability
[21] = Permeability from apical to basolateral side of human Caco2 cells assessed as mass balance at compound, Lipoid S100 and gelucire 44/14 ratio 1:1:1; format: ADME, cell-based; conditions: Caco-2, read-out: permeability
[22] = Permeability from apical to basolateral side of human Caco2 cells assessed as mass balance at compound, Lipoid S100 and pluronic f68 ratio 1:1:1; format: ADME, cell-based; conditions: Caco-2, read-out: permeability
[23] = Permeability from apical to basolateral side of human Caco2 cells assessed as mass balance at compound, Lipoid S100 and pluronic f127 ratio 1:1:1; format: ADME, cell-based; conditions: Caco-2, read-out: permeability
[24] = Solubility of the compound in modified fasted state simulated intestinal fluid at 5 mg/mL after 3 hrs by HPLC analysis; format: physicochemical
[25] = Solubility of the compound in HBSS buffer containing 4% bovine serum albumin at 5 mg/mL after 3 hrs by HPLC analysis; format: physicochemical
[26] = Solubility of the compound in fasted state simulated intestinal fluid at compound, Lipoid S100 and pluronic f127 ratio 1:1:1 after 3 hrs by HPLC analysis; format: physicochemical
[27] = Apparent permeability from apical to basolateral side of human Caco2 cells at compound, Lipoid S100 and pluronic f127 ratio 1:1:1 using modified fasted state simulated intestinal fluid; format: ADME, cell-based; conditions: Caco-2
[28] = Apparent permeability from apical to basolateral side of human Caco2 cells at compound, Lipoid S100 and pluronic f127 ratio 1:1:1 using modified fed state simulated intestinal fluid; format: ADME, cell-based; conditions: Caco-2
[29] = Apparent permeability from apical to basolateral side of human Caco2 cells at compound, Lipoid S100 and pluronic f127 ratio 1:1:1 using HBSS buffer; format: ADME, cell-based; conditions: Caco-2
Plasma [30] = experiment: Plasma concentration in rat at 240 mg/kg, po administered using compound, Lipoid S100 and pluronic f127 ratio 1:1:1 formulation relative to non-formulated compound after 2 hrs; format: ADME, organism-based; parameters: dose 240 mg/kg, route oral; conditions: in vivo
Plasma [31] = experiment: Plasma concentration in rat at 240 mg/kg, po administered using compound, Lipoid S100 and pluronic f127 ratio 1:1:1 formulation relative to non-formulated compound after 8 hrs; format: ADME, organism-based; parameters: dose 240 mg/kg, route oral; conditions: in vivo
[32] = Solubility of the compound in water at 5 mg/mL after 3 hrs by HPLC analysis; format: physicochemical
[33] = Solubility of the compound in fasted state simulated intestinal fluid at 5 mg/mL after 3 hrs by HPLC analysis; format: physicochemical
[34] = Solubility of the compound in fed state simulated intestinal fluid at 5 mg/mL after 3 hrs by HPLC analysis; format: physicochemical
[35] = Solubility of the compound in water at compound to Lipoid S100 ratio 1:1 after 3 hrs by HPLC analysis; format: physicochemical
[36] = Solubility of the compound in fasted state simulated intestinal fluid at compound to Lipoid S100 ratio 1:1 after 3 hrs by HPLC analysis; format: physicochemical
[37] = Solubility of the compound in fed state simulated intestinal fluid at compound to Lipoid S100 ratio 1:1 after 3 hrs by HPLC analysis; format: physicochemical
[38] = Solubility of the compound in water at compound to Lipoid S100 ratio 1:3 after 3 hrs by HPLC analysis; format: physicochemical
[39] = Solubility of the compound in fasted state simulated intestinal fluid at compound to Lipoid S100 ratio 1:3 after 3 hrs by HPLC analysis; format: physicochemical
Plasma [40] = experiment: Plasma concentration in rat at 240 mg/kg, po administered using compound, Lipoid S100 and pluronic f127 ratio 1:1:1 formulation; format: ADME, organism-based; parameters: dose 240 mg/kg, route oral; conditions: in vivo
Prostaglandin E synthase = target: T1, Prostaglandin E synthase (Homo sapiens, UniProt O14684); experiment: Inhibition of mPGES1
T1 sequence (O14684 whole entry): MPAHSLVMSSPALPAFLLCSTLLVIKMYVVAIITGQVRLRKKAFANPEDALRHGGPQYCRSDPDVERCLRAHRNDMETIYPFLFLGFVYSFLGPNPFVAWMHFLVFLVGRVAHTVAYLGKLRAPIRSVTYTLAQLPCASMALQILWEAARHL

SMILES | fold change (FC) (Plasma [1]) | Drug uptake (Brain [2]) | Drug uptake (Brain [3]) | Kp at 8 h [4] | Kp at 8 h [5] | solubility at 3 h [6] | solubility [7] | solubility at 3 h [8] | solubility at 3 h [9] | solubility at 3 h [10] | solubility at 3 h [11] | solubility at 3 h [12] | solubility at 3 h [13] | permeability (Caco-2) | recovery [14] | recovery [15] | recovery [16] | recovery [17] | recovery [18] | recovery at 5 mg/mL [19] | other results
CC(=O)O[C@@H]1CC[C@@]2(C)[C@@H](CC[C@]3(C)[C@@H]2CC=C2[C@@H]4CC(C)(C)CC[C@]4(C)CC[C@]23C)[C@@]1(C)C(=O)O | 26 | 43 ng/g | 60.1 ng/g | – | – | – | – | – | – | – | – | – | – | – | – | – | – | – | – | – | –
CC(=O)O[C@@H]1CC[C@@]2(C)[C@@H](CC[C@]3(C)[C@@H]2CC=C2[C@@H]4[C@@H](C)[C@H](C)CC[C@]4(C)CC[C@]23C)[C@@]1(C)C(=O)O | 26 | 163.7 ng/g | 156.1 ng/g | – | – | – | – | – | – | – | – | – | – | – | – | – | – | – | – | – | –
CC1(C)CC[C@]2(C)CC[C@]3(C)C(=CC[C@@H]4[C@@]5(C)CC[C@@H](O)[C@](C)(C(=O)O)[C@@H]5CC[C@]43C)[C@@H]2C1 | 26 | 485.1 ng/g | 2443.9 ng/g | 0.18 | 4.4 | – | – | – | – | – | – | – | – | – | – | – | – | – | – | – | –
C[C@H]1[C@H](C)CC[C@]2(C)CC[C@]3(C)C(=CC(=O)[C@@H]4[C@@]5(C)CC[C@@H](O)[C@](C)(C(=O)O)[C@@H]5CC[C@]43C)[C@H]12 [11-KETO BOSWELLIC ACID] | – | 11.6 ng/g | 13.6 ng/g | – | – | 183 µg/mL | 73.1 µg/mL (≈ 155 µM) | 78.2 µg/mL | 109 µg/mL | 164 µg/mL | 246 µg/mL | 293 µg/mL | 400 µg/mL | BLD | 96.3% | 93.9% | 99.8% | 102% | 96% | 101% | recovery [20]: 101%; recovery [21]: 92%; recovery [22]: 90.1%; recovery [23]: 99.9%; solubility at 3 h [24]: 17 µg/mL (≈ 36.1 µM); solubility at 3 h [25]: 17.5 µg/mL (≈ 37.1 µM); solubility at 3 h [26]: 395 µg/mL; Papp A→B [27]: 3.7 ×10⁻⁶ cm/s; Papp A→B [28]: 3.2 ×10⁻⁶ cm/s; Papp A→B [29]: 2.9 ×10⁻⁶ cm/s; fold change (FC) (Plasma [30]): 26; fold change (FC) (Plasma [31]): 6; solubility at 3 h [32]: 1.16 µg/mL (≈ 2.46 µM); solubility at 3 h [33]: 15.9 µg/mL (≈ 33.8 µM); solubility at 3 h [34]: 73.1 µg/mL (≈ 155 µM); solubility at 3 h [35]: 5.18 µg/mL; solubility at 3 h [36]: 124 µg/mL; solubility at 3 h [37]: 252 µg/mL; solubility at 3 h [38]: 192 µg/mL; solubility at 3 h [39]: 151 µg/mL
CC(=O)O[C@@H]1CC[C@@]2(C)[C@@H](CC[C@]3(C)[C@@H]2C(=O)C=C2[C@@H]4[C@@H](C)[C@H](C)CC[C@]4(C)CC[C@]23C)[C@@]1(C)C(=O)O [AKBA] | – | 37.5 ng/g | 203.8 ng/g | 0.07 | 2.2 | 35.8 µg/mL | > 60 µg/mL | 13.4 µg/mL | 18.2 µg/mL | 27.6 µg/mL | 44.7 µg/mL | 59.5 µg/mL | 69.5 µg/mL | BLD | 93.3% | 88.3% | 98% | 104% | 96.4% | 95.2% | recovery [20]: 98.8%; recovery [21]: 90.7%; recovery [22]: 87.8%; recovery [23]: 101%; solubility at 3 h [26]: 65.3 µg/mL; Papp A→B [27]: 3.1 ×10⁻⁶ cm/s; Papp A→B [28]: 2.8 ×10⁻⁶ cm/s; Papp A→B [29]: 2.5 ×10⁻⁶ cm/s; fold change (FC) (Plasma [30]): 14; fold change (FC) (Plasma [31]): 6; concentration (Plasma [40]): 1700 nM; solubility at 3 h [32]: 0.2 µg/mL (≈ 0.39 µM); solubility at 3 h [33]: 3.05 µg/mL (≈ 5.95 µM); solubility at 3 h [34]: 13.2 µg/mL (≈ 25.8 µM); solubility at 3 h [35]: 0.87 µg/mL; solubility at 3 h [36]: 24.2 µg/mL; solubility at 3 h [37]: 48 µg/mL; solubility at 3 h [38]: 51.4 µg/mL; solubility at 3 h [39]: 29.7 µg/mL
C[C@H]1[C@H](C)CC[C@]2(C)CC[C@]3(C)C(=CC[C@@H]4[C@@]5(C)CC[C@@H](O)[C@](C)(C(=O)O)[C@@H]5CC[C@]43C)[C@H]12 [BOSWELLIC ACID] | 26 | 1066.6 ng/g | 5908.2 ng/g | 0.2 | 5.5 | – | – | – | – | – | – | – | – | – | – | – | – | – | – | – | IC50 (Prostaglandin E synthase): 5 µM
